This is an account of results in patent publication US20120196927A1, “PROPHYLACTIC AND/OR THERAPEUTIC AGENT FOR METABOLIC SYNDROME” (priority 2009, published 2012).

The test system of data set [1] is GLUT4 protein. Kind of data set: Diabetes model mice: GLUT4 protein expression level (Western blotting). The data set is classed as in vivo, mouse. Conditions: ob/ob mice, nobiletin 200 mg/kg/day, Pioglitazone 30 mg/kg/day. On the procedure: After finishing the experiment, the white adipose tissue and skeletal muscle were excised according to that described in the example 1, protein expression level of GLUT 4 were detected by using Western blotting method. The expression levels of GLUT4 protein were determined by using Na^+/K^+ ATPase α-1 protein as an internal reference.
On the technique in general: A western blot detects proteins with antibodies after separation by electrophoresis.

In data set [2] the test system is C57BL/6J-ob/ob mice. Conditions: nobiletin 200 mg/kg/day, Pioglitazone 30 mg/kg/day, 5 weeks.
Text: (§6) Diabetes model mice and the experimental system were as follows. As the diabetes model mice, 7 week age of male C57BL/6J-ob/ob (hereinafter, it was referred to as “ob/ob”) were purchased from Charles River Laboratories Japan Inc., and used as 10 mice/group.
For the negative control group (from FIGS. 5 to 10, it was shown as Vehicle; hereinafter, it is referred to as “solvent administration group”), 0.3% of CMC aqueous solution was administrated orally for 5 weeks in everyday at the dosage of 0.01 mL/g body weight. For the positive control group (in FIGS. 5 to 10 and hereinafter, it was referred to as “P30 administrated group”), 3 mg of Pioglitazone was suspended in 0.3% CMC aqueous solution so as to be orally administrated at the dosage of 0.01 mL/g body weight for 5 weeks in everyday (dosage: 30 mg/kg body weight/day). […]
The blood insulin level was measured as described in below. […] As lipids in plasma, concentrations of neutral fat (TG) and total cholesterol (T-CHO) were measured. Plasma insulin level was measured by using rebis insulin mouse (type U) (Shibayagi Co. Ltd.) based on the enzyme-immunoassay.
The test system of data set [3] is gluconeogenesis-related genes PEPCK, G6Pase. Kind of data set: Diabetes model mice: mRNA expression in the liver (real time RT-PCR). The class given is in vivo, mouse. To be noted: ob/ob mice, Vehicle = 1.00, nobiletin 200 mg/kg/day, Pioglitazone 30 mg/kg/day, 5 weeks. On the procedure:
(§1) The effects by nobiletin ingestion to the mRNA expression in the white adipose tissue and the liver were measured (n=10).
(§2) After the termination of the administration period for 5 weeks, mRNA expression levels of respective genes shown in the table 10 were determined by using real time RT-PCR method. The real time RT-PCR was carried out according to an operation manual provided by ISOGEN (NIPPON GENE CO., LTD); RNA was extracted from the white adipose tissue and the liver. Next, cDNA was prepared from using 1 μg of RNA by using Reverse Transcription System kit (Promega Corp., USA). Next, suitable primers for the above-mentioned genes were prepared according to the operation manual provided by FastStart universal SYBR (a registered trademark) Greenmaster PCR KIT agent (Roche Diagnostics K. K., Germany).
(§3) Real time PCR system 7700HT (Applied Biosytems, USA) was used for the determination to carry out the real time PCR by using the cDNAs as templates. Each reaction conditions were set according to the manual of the PCR KIT. Quantitative analysis of the RNA amount was carried out based on comparative Ct method by using glyceraldehyde 3-phosphate dehydrogenase (GAPDH) as the standard reference.
On the technique in general: In qPCR the cycle at which signal appears reflects the starting amount.

Data set [4] concerns C57BL/6J-ob/ob mice. Description: Diabetes model mice: oral glucose tolerance test (OGTT). The data set is classed as in vivo, mouse. Conditions: nobiletin 200 mg/kg/day, Pioglitazone 30 mg/kg/day. On the procedure: The oral glucose tolerance test (OGTT) for the diabetes model mice (ob/ob) to which the nobiletin and others were administrated was subjected to the glucose tolerance test for studying the effects.
From 4 weeks after the start of the administration, the mice in each group were fasted for 16 hours, and then they were administrated 2 g/kg body weight of glucose per os. After the administration of glucose, […] of blood was collected from the tail vein at the time point of 0, 30, 60 and 120 minutes. Collected blood was centrifuged at 4° C., 3,000×g, for 15 minute to obtain plasma (n=10). The blood glucose level was measured as the same as that described in the example 1.

For data set [5], the system named is C57BL/6J-ob/ob mice. The class given is in vivo, mouse. Conditions: p.o. daily 5 weeks, nobiletin 200 mg/kg/day (No200), Pioglitazone 30 mg/kg/day (P30).
Text: as §6
For the negative control group (from FIGS. 5 to 10, it was shown as Vehicle; hereinafter, it is referred to as “solvent administration group”), 0.3% of CMC aqueous solution was administrated orally for 5 weeks in everyday at the dosage of 0.01 mL/g body weight. For the positive control group (in FIGS. 5 to 10 and hereinafter, it was referred to as “P30 administrated group”), 3 mg of Pioglitazone was suspended in 0.3% CMC aqueous solution so as to be orally administrated at the dosage of 0.01 mL/g body weight for 5 weeks in everyday (dosage: 30 mg/kg body weight/day).
For the sample ingestion group (in FIGS. 5 to 10 and hereinafter, it is referred to as “No200 ingestion group”), 20 mg of nobiletin purified as mentioned above (1) was suspended in 0.3% of carboxymethylcellulose (CMC) aqueous solution so as to be orally administrated at the dose of 0.01 mL/g body weight for 5 weeks in everyday (the dose: 200 mg/kg/day).
The body weight of mice, ingestion amount, weight of the white adipose tissue and liver weight of each mice were measured as the same as described in the example 3.
In data set [6] the test system is GLUT4, Adiponectin, TNF-α, MCP-1, IL-6, PPARγ, aP2, LPL, Perilipin genes. Description: Diabetes model mice: mRNA expression in the white adipose tissue (real time RT-PCR). The class given is in vivo, mouse. To be noted: ob/ob mice, Vehicle = 1.00, nobiletin 200 mg/kg/day, Pioglitazone 30 mg/kg/day, 5 weeks. Here is the method:
as §1, §2, §3

The test system of data set [7] is C57BL/6J-ob/ob mice. Description: Diabetes model mice: fasting blood glucose level. The data set is classed as in vivo, mouse. To be noted: nobiletin 200 mg/kg/day, Pioglitazone 30 mg/kg/day p.o. On the procedure:
Two weeks or 5 weeks from the beginning of the administration, the fasting blood glucose was measured (n=10). The measurement of the blood glucose level was carried out as the same as that of the example 1.

Data set [8] deals with GLUT4 gene and PPARγ gene. Kind of data set: Tangeretin, obesity-induced mice: mRNA expression of GLUT4 and PPARγ (real time RT-PCR). The class given is in vivo, mouse. Conditions: HFD = 1, tangeretin 200 mg/kg/day p.o. 5 weeks. On the procedure: mRNA expression level was determined by using real time PCR as follows. According to the direction attached with ISOGEN (Nippon Gene Co., Ltd), RNA was extracted from white adipose tissue, liver, and skeletal muscle. Next, cDNA was prepared from 1 μg of RNA by using Reverse Transcription System kit (Promega, USA). Subsequently, according to the direction attached with FastStart universal SYBR (Registered trademark) Greenmaster PCR kit reagent (Roche Diagnostics, Germany), primers suitable for each intended gene in the following experiments were synthesized. Real time PCR system 7700 HT (Applied Biosytems, USA) was used for the measurement, the cDNA was used as templates for the real time PCR. Reaction conditions were followed to those for the PCR kit reagents. Quantitative analysis of RNA level was performed by Comparison Ct method, using glyceraldehyde 3-phosphate dehydrogenase (GAPDH) as the standard.
As the same as that in the Example 1, after the completion of the experiment, the white adipose tissue was excised to determine the both mRNA expression levels of GLUT4 gene mRNA and PPARγ gene by using the real time RT-PCR. Ratios of the expression levels when that of the HFD is 1 were shown in the table 18 and FIGS. 11A and 11B.

Data set [9] has as its system C57BL/6 male mice. Description: Tangeretin, obesity-induced mice: tissue weight. The data set is classed as in vivo, mouse. Conditions: HFD obesity-induced mice, tangeretin 200 mg/kg/day p.o. 5 weeks. From the text:
(§4) Six week age of C57BL/6 male mice were preliminary kept for 1 week (−9 to −8 week), and then classified into three groups. […] was given to one group, and HFD was given to other two groups, for 8 weeks (−8 to +5 week). From 8 weeks (15 week age) to 13 weeks, the following agents were given to each group for 5 weeks per os (hereinafter, they were referred to as LFD administration group and HFD administration group in the Example 6). The compositions of the LFD or HFD were the same as those in the Example 3.
(§5) To the LFD administration group (n=8) and the HFD administration group (n=11), 0.3% CMC aqueous solution was given at the amount of 0.01 mL/g of the body weight. […] The schedule of the feed ingestion and the agent administration of the above-mentioned 3 groups were schematically shown in FIG. 12A.
After the completion of the experiment, the mice in each group were dissected to excise organs and so forth to measure their weight. The white adipose tissue was excised from retroperitoneum and periphery of epididymis.

Data set [10] has as its system C57BL/6 male mice. Kind of data set: Tangeretin, obesity-induced mice: blood TG and T-CHO level. The data set is classed as in vivo, mouse. To be noted: fasting, tangeretin 200 mg/kg/day p.o., HFD. On the procedure: After the completion of the experiment, blood neutral fat level in fasting state was measured at the time points of beginning of the experiment, two and five weeks after the administration.
The blood neutral fat (TG) level was measured as the same as that employed in the example 1.
The total cholesterol (T-CHO) level in blood was measured as the same as that in the Example.

Data set [11] has as its system C57BL/6 male mice. Description: Tangeretin, obesity-induced mice: body weight gain and ingestion amount. The class given is in vivo, mouse. Conditions: HFD obesity-induced C57BL/6 mice.
Text: as §4, §5
The ingestion amount of the mice in each group was measured twice a week. The ingestion amounts in 24 hours/3 mice/cage were measured and obtained as mean average of each group for 5 weeks.

Data set [12] relates to C57BL/6 male mice. Description: Tangeretin, obesity-induced mice: oral glucose tolerance test (OGTT). The class given is in vivo, mouse. Conditions: tangeretin 200 mg/kg/day p.o., HFD. On the procedure: The oral glucose tolerance test (OGTT) was carried out as the same as that in the example 1.
Data set [13] deals with C57BL/6 male mice. Description: Tangeretin, obesity-induced mice: blood glucose in fasting state. The data set is classed as in vivo, mouse. To be noted: tangeretin 200 mg/kg/day p.o., HFD. Here is the method:
The blood glucose level was measured as the same as that of the example 1. […] As mentioned above, it was shown that tangeretin has the inhibition effects of the blood glucose level in the fasting state when the high fat diet was ingested.

The mark [14] stands for this setting: Western blotting, Vehicle = 1.00, 5 weeks.

Molecules are shown by their SMILES.

As for `CCc1ccc(CCOc2ccc(CC3SC(=O)NC3=O)cc2)nc1` (stereo not shown) [Pioglitazone, reference compound], in [1] (setting [14]), the “Gene expression level (ratio), Skeletal muscle (GLUT4 protein)” value is listed as 3.15 and the “Gene expression level (ratio), White adipose tissue (GLUT4 protein)” value came out at 2.24. In addition, in data set [1], the “GLUT4 protein expression amount in the skeletal muscle, times higher than vehicle administration group” value is listed as about 3 times and the “GLUT4 protein expression level in the white adipose tissue, times higher than vehicle administration group” value was determined as 2.2 times. For the same molecule, the “Adiponectin level in blood, times higher than solvent administration group” value in [2] is given as at least 2.5 times. Moreover, in data set [3], the “Gene expression level (ratio), [L]G6Pase” value came out at 0.23 ± 0.04 and the “Gene expression level (ratio), [L]PEPCK” value came out at 0.57 ± 0.01. Also, the “Blood glucose level (OGTT)” value in data set [4] (0 min after 2 g/kg glucose p.o.) was 144.67 ± 8.96 mg/dL. Besides, in [4] (30 min after 2 g/kg glucose p.o.), the “Blood glucose level (OGTT)” value is 273.55 ± 14.15 mg/dL. Besides, the “Blood glucose level (OGTT)” value in [4] (60 min after 2 g/kg glucose p.o.) turned out to be 170.60 ± 4.45 mg/dL. The “Blood glucose level (OGTT)” value in data set [4] (120 min after 2 g/kg glucose p.o.) is 175.79 ± 18.06 mg/dL. Also, in data set [5], the Gained body weight is given as 10.83 ± 0.58 g and the white adipose tissue is 5.70 ± 0.17 g. For the same molecule, in data set [6], the “Gene expression level (ratio), [W]Adiponectin” value worked out at 1.58 ± 0.02; the “Gene expression level (ratio), [W]GLUT4” value is on record as 1.15 ± 0.02; the “Gene expression level (ratio), [W]IL-6” value was found to be 0.19 ± 0.12; the “Gene expression level (ratio), [W]LPL” value was found to be 0.93 ± 0.04. Further, in data set [6], the “Gene expression level (ratio), [W]MCP-1” value is 0.44 ± 0.10; the “Gene expression level (ratio), [W]PPARγ” value amounted to 1.13 ± 0.02; the “Gene expression level (ratio), [W]Perilipin” value came to 1.37 ± 0.13; the “Gene expression level (ratio), [W]TNF-α” value was found to be 1.08 ± 0.01. Further, the “Gene expression level (ratio), [W]aP2” value in data set [6] is listed as 2.03 ± 0.01. The “Blood glucose level (fasting)” value in data set [7] (0 week after administration) is 183.61 ± 16.51 mg/dL. The “Blood glucose level (fasting)” value in data set [7] (2 weeks after administration) was determined as 132.50 ± 7.86 mg/dL. For the same molecule, the “Blood glucose level (fasting)” value in [7] (5 weeks after administration) stood at 144.67 ± 8.96 mg/dL.

With `COc1ccc(-c2cc(=O)c3c(OC)c(OC)c(OC)c(OC)c3o2)cc1` [tangeretin], the “Expression level (ratio), [M]GLUT4” value in data set [8] (skeletal muscle mRNA) is listed as 1.72. Besides, the “Expression level (ratio), [W]GLUT4” value in data set [8] (white adipose tissue mRNA) worked out at 0.42. The “Expression level (ratio), [W]PPARγ” value in data set [8] (white adipose tissue mRNA) is 0.43. Also, the “Tissue Weight, Kidney” value in data set [9] is reported as 0.31 ± 0.01 g/100 g of body weight. In data set [9], the “Tissue Weight, Liver” value is 1.48 ± 0.11 g/100 g of body weight. For the same molecule, the “Tissue weight, Epididymis white adipose tissue” value in [9] is 0.99 ± 0.12 g/100 g of body weight. For the same molecule, the “Tissue weight, Retroperitoneum white adipose tissue” value in data set [9] is 2.38 ± 0.09 g/100 g of body weight. Moreover, in [9], the “Tissue weight, White adipose tissue in total” value is listed as 3.38 ± 0.16 g/100 g of body weight. Moreover, the “Blood TG level” value was determined as 108.70 ± 7.75 mg/dL in [10] (0 weeks after administration), 107.89 ± 9.46 mg/dL in data set [10] (2 weeks after administration) and 105.42 ± 7.54 mg/dL in data set [10] (5 weeks after administration). Besides, the Body weight gain in data set [11] (tangeretin 200 mg/kg/day p.o. 5 weeks (HFD+T200)) is on record as 3.94 ± 0.45 g. This molecule also gave an Ingestion amount in data set [11] (tangeretin 200 mg/kg/day p.o., mean of 5 weeks) of 2.47 ± 0.24 g/day. Also, the “Blood glucose level (OGTT)” value in data set [12] (0 min after glucose) amounted to 124.75 ± 7.14 mg/dL; in [12] (15 min after glucose), 347.43 ± 11.82 mg/dL; in data set [12] (30 min after glucose) it was 309.73 ± 17.88 mg/dL; in data set [12] (60 min after glucose), 274.14 ± 19.04 mg/dL; in data set [12] (120 min after glucose) it was 265.19 ± 15.82 mg/dL. Besides, the “Blood glucose level (fasting state)” value in data set [13] (time after administration 0 (head prints min.)) worked out at 142.82 ± 7.03 mg/dL; in [13] (time after administration 2 (head prints min.)), 164.79 ± 9.82 mg/dL; in data set [13] (time after administration 5 (head prints min.)), 124.75 ± 7.14 mg/dL.
